Earlier results as cited in patent publication US12357536B2, “Containers with selective dissolved gas content” (BAXTER INTERNATIONAL INC., priority 2021, dated 2025).
Where two headings read alike, the source gives them in different places.

Details: cited from earlier work; for Solubility of oxygen: 760 mm Hg, salinity 0.0 ppt

SMILES: O=O [oxygen]
- Solubility of oxygen (3.0 °C): 13.445 ppm
- Solubility of oxygen (3.2 °C): 13.374 ppm
- Solubility of oxygen (3.4 °C): 13.303 ppm
- Solubility of oxygen (3.6 °C): 13.233 ppm
- Solubility of oxygen (3.8 °C): 13.163 ppm
- Solubility of oxygen (4.0 °C): 13.094 ppm
- Solubility of oxygen (4.2 °C): 13.025 ppm
- Solubility of oxygen (4.4 °C): 12.957 ppm
- Solubility of oxygen (4.6 °C): 12.890 ppm
- Solubility of oxygen (4.8 °C): 12.823 ppm
- Solubility of oxygen (5.0 °C): 12.757 ppm
- Solubility of oxygen (5.2 °C): 12.692 ppm
- Solubility of oxygen (5.4 °C): 12.627 ppm
- Solubility of oxygen (5.6 °C): 12.563 ppm
- Solubility of oxygen (5.8 °C): 12.499 ppm
- Solubility of oxygen (6.0 °C): 12.436 ppm
- Solubility of oxygen (6.2 °C): 12.373 ppm
- Solubility of oxygen (6.4 °C): 12.311 ppm
- Solubility of oxygen (6.6 °C): 12.249 ppm
- Solubility of oxygen (6.8 °C): 12.188 ppm
- Solubility of oxygen (7.0 °C): 12.127 ppm
- Solubility of oxygen (7.2 °C): 12.067 ppm
- Solubility of oxygen (7.4 °C): 12.008 ppm
- Solubility of oxygen (7.6 °C): 11.949 ppm
- Solubility of oxygen (7.8 °C): 11.980 ppm
- Solubility of oxygen (8.0 °C): 11.832 ppm
- Solubility of oxygen (8.2 °C): 11.774 ppm
- Solubility of oxygen (8.4 °C): 11.717 ppm
- Solubility of oxygen (8.6 °C): 11.661 ppm
- Solubility of oxygen (8.8 °C): 11.604 ppm
- Solubility of oxygen (9.0 °C): 11.549 ppm
- Solubility of oxygen (9.2 °C): 11.493 ppm
- Solubility of oxygen (9.4 °C): 11.439 ppm
- Solubility of oxygen (9.6 °C): 11.384 ppm
- Solubility of oxygen (9.8 °C): 11.331 ppm
- Solubility of oxygen (10.0 °C): 11.277 ppm
- Solubility of oxygen (10.2 °C): 11.224 ppm
- Solubility of oxygen (10.4 °C): 11.172 ppm
- Solubility of oxygen (10.6 °C): 11.119 ppm
- Solubility of oxygen (10.8 °C): 11.068 ppm
- Solubility of oxygen (11.0 °C): 11.016 ppm
- Solubility of oxygen (11.2 °C): 10.995 ppm
- Solubility of oxygen (11.4 °C): 10.915 ppm
- Solubility of oxygen (11.6 °C): 10.865 ppm
- Solubility of oxygen (11.8 °C): 10.815 ppm
- Solubility of oxygen (12.0 °C): 10 766 ppm
- Solubility of oxygen (12.2 °C): 10.717 ppm
- Solubility of oxygen (12.4 °C): 10.669 ppm
- Solubility of oxygen (12.6 °C): 10.620 ppm
- Solubility of oxygen (12.8 °C): 10.573 ppm
- Solubility of oxygen (13.0 °C): 10.525 ppm
- Solubility of oxygen (13.2 °C): 10.478 ppm
- Solubility of oxygen (13.4 °C): 10.432 ppm
- Solubility of oxygen (13.6 °C): 10.386 ppm
- Solubility of oxygen (13.8 °C): 10.340 ppm
- Solubility of oxygen (14.0 °C): 10.294 ppm
- Solubility of oxygen (14.2 °C): 10.249 ppm
- Solubility of oxygen (14.4 °C): 10.204 ppm
- Solubility of oxygen (14.6 °C): 10.160 ppm
- Solubility of oxygen (14.8 °C): 10.115 ppm
- Solubility of oxygen (15.0 °C): 10.072 ppm
- Solubility of oxygen (15.2 °C): 10.028 ppm
- Solubility of oxygen (15.4 °C): 9.985 ppm
- Solubility of oxygen (15.6 °C): 9.942 ppm
- Solubility of oxygen (15.8 °C): 9.900 ppm
- Solubility of oxygen (16.0 °C): 9.858 ppm
- Solubility of oxygen (16.2 °C): 9.816 ppm
- Solubility of oxygen (16.4 °C): 9.774 ppm
- Solubility of oxygen (16.6 °C): 9.733 ppm
- Solubility of oxygen (16.8 °C): 9.692 ppm
- Solubility of oxygen (17.0 °C): 9.651 ppm
- Solubility of oxygen (17.2 °C): 9.611 ppm
- Solubility of oxygen (17.4 °C): 9.571 ppm
- Solubility of oxygen (17.6 °C): 9.531 ppm
- Solubility of oxygen (17.8 °C): 9.492 ppm
- Solubility of oxygen (18.0 °C): 9.453 ppm
- Solubility of oxygen (18.2 °C): 9.414 ppm
- Solubility of oxygen (18.4 °C): 9.375 ppm
- Solubility of oxygen (18.6 °C): 9.337 ppm
- Solubility of oxygen (18.8 °C): 9.299 ppm
- Solubility of oxygen (19.0 °C): 9.261 ppm
- Solubility of oxygen (19.2 °C): 9.224 ppm
- Solubility of oxygen (19.4 °C): 9.187 ppm
- Solubility of oxygen (19.6 °C): 9.150 ppm
- Solubility of oxygen (19.8 °C): 9.113 ppm
- Solubility of oxygen (20.0 °C): 9.077 ppm
- Solubility of oxygen (20.2 °C): 9.040 ppm
- Solubility of oxygen (20.4 °C): 9.004 ppm
- Solubility of oxygen (20.6 °C): 8.969 ppm
- Solubility of oxygen (20.8 °C): 8.933 ppm
- Solubility of oxygen (21.0 °C): 8.989 ppm
- Solubility of oxygen (21.2 °C): 8.863 ppm
- Solubility of oxygen (21.4 °C): 8.829 ppm
- Solubility of oxygen (21.6 °C): 8.794 ppm
- Solubility of oxygen (21.8 °C): 8.760 ppm
- Solubility of oxygen (22.0 °C): 8.726 ppm
- Solubility of oxygen (22.2 °C): 8.693 ppm
- Solubility of oxygen (22.4 °C): 8.659 ppm
- Solubility of oxygen (22.6 °C): 8.626 ppm
- Solubility of oxygen (22.8 °C): 8.583 ppm
- DO concentration of a solution saturated with oxygen (about room temperature (approx.) 21° C): about 8 ppm
